In patent US20250129096A1, “ANNULATED 2-AMINO-3-CYANO THIOPHENES AND DERIVATIVES FOR THE TREATMENT OF CANCER” (Boehringer Ingelheim Int'l GmbH Corp., priority 2021, published 2025):

Tests used:
KRAS (G13D)::SOS1 = biological target: T1, KRAS (G13D)::SOS1 (Homo sapiens, UniProt P01116, C118S/G13D); assay: KRAS::SOS1 AlphaScreen binding assay, KRAS G13D
T1 construct: KRAS (G13D) 1-169, N-terminal 6His-tag for purification, cleaved off; 6His-tag (N, cleaved yes); TEV cleavage site
Method: Low IC50 values in this assay setting are indicative of strong inhibition of protein-protein interaction between SOS1 and KRAS:
These assays measure the inhibitory effect of compounds on KRAS mutant protein-protein interactions using the Alpha Screen technology by Perkin Elmer.
For the chosen highest assay concentration of 100 μM, 150 nL of compound solution are transferred from a 10 mM DMSO compound stock solution. A series of eleven fivefold dilutions per compound are transferred to the assay plate, compound dilutions are tested in duplicates. DMSO are added as backfill to a total volume of 150 nL.
The assays run on a fully automated robotic system in a darkened room below 100 Lux. To 150 nl of compound dilution 10 μl of a mix including KRAS mutant protein, SOS1 (final assay concentrations see above) and GDP nucleotide (Sigma G7127; final assay concentration 10 μM) in assay buffer (1×PBS, 0.1% BSA, 0.05% Tween 20) are added into columns 1-24. […]
Plates are kept at room temperature in a darkened incubator. After an additional 60 minutes incubation time the signal is measured in a PerkinElmer Envision HTS Multilabel Reader using the AlphaScreen specs from PerkinElmer.
IC50 values are calculated and analyzed with Boehringer Ingelheim's MEGALAB IC50 application using a 4 parametric logistic model.

CYP3A4 = biological target: T2, CYP3A4 (Homo sapiens, UniProt P08684); assay: Mechanism based inhibition of CYP3A4 assay (MBI 3A4); type: in vitro ADME; conditions: 25 uM, hydroxy-midazolam formation after 30 min preincubation relative to 0 min, human liver microsomes
T2 construct: assayed in human liver microsomes (0.02 mg/mL) with midazolam (15 μM) as a substrate; from tissue; host or cells: human liver microsomes
T2 sequence (P08684 whole entry): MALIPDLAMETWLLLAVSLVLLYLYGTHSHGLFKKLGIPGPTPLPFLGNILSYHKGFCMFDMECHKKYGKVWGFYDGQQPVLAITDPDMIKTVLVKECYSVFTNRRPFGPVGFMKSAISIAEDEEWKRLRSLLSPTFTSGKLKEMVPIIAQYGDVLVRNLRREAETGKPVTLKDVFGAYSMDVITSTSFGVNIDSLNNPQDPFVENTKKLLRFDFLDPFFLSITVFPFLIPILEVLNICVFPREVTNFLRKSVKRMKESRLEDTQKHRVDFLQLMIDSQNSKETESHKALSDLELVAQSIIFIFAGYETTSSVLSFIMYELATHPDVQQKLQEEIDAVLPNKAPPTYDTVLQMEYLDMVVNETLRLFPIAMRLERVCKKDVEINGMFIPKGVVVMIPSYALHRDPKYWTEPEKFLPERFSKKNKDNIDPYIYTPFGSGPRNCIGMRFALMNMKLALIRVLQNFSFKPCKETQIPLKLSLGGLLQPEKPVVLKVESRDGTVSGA
Method: After preincubation, the incubate is diluted 1:10 and the substrate midazolam is added for the main incubation (15 min). The main incubation is quenched with acetonitrile and the formation of hydroxy-midazolam is quantified via LC/MS-MS. The formation of hydroxy-midazolam from the 30 min preincubation relative to the formation from the 0 min preincubation is used as a readout. Values of less than 100% mean that the substrate midazolam is metabolized to a lower extent upon 30 min preincubation compared to 0 min preincubation. In general low effects upon 30 min preincubation are desired (corresponding to values close to 100%/not different to the values determined with water control).

[1] = system: GP2D cells (colorectal cancer, G12D); assay: GP2D proliferation assay (120 h); type: cell-based; conditions: CellTiter-Glo
Method: GP2D cells (ATCC No. CRL-5807) are dispensed into white 384-well plates, flat and white bottom (Perkin Elmer, 6007680) at a density of 500 cells per well in 40 μl DMEM (Sigma, D6429)+1× GlutaMAX (Gibco, 35050038)+10% FCS (fetal calf serum). […] Compounds (10 mM stock in DMSO) are added at logarithmic dose series using the HP Digital Dispenser D300 (Tecan), including DMSO controls and normalizing for added DMSO. For the TO time point measurement, untreated cells are analyzed at the time of compound addition. Plates are incubated for 120 h, and cell viability is measured using CellTiter-Glo luminescent cell viability reagent (Promega product code G7570). Viability (stated as percent of control) is defined as relative luminescence units RLU of each well divided by the RLU of cells in DMSO controls. IC50 values are determined from viability measurements by non-linear regression using a four-parameter model.

[2] = system: NCI-H358 cells (NSCLC, G12C); assay: NCI-H358 CTG proliferation assay (120 h), assay 1; type: cell-based; conditions: Homo sapiens, CellTiter-Glo, 96 well, 2000 cells per well
Method: NCI-1H358 cells (ATCC No. CRL-5807) are dispensed into white bottom opaque 96 well plates (Perkin Elmer cat no. 5680) at a density of 2000 cells per well in 100 μL RPM 1-1640 ATCC-Formulation (Gibco #A10491)+10% FCS (fetal calf serum) (assay 1) or into black 384-well plates, flat and clear bottom (Greiner, PNr. 781091) at a density of 200 cells per well in 60 μl RPMI-1640 ATCC-Formulation (Gibco #A10491)+10% FCS (fetal calf serum) (assay 2). […] Compounds (10 mM stock in DMSO) are added at logarithmic dose series using the HP Digital Dispenser D300 (Tecan) (assay 1) or the ECHO acoustic liquid handler system (Beckman Coulter) (assay 2), normalizing for added DMSO and including DMSO controls. For the TO time point measurement, untreated cells are analyzed at the time of compound addition. Plates are incubated for 120 h, and cell viability is measured using CellTiter-Glo luminescent cell viability reagent (Promega product code G7570). Viability (stated as percent of control) is defined as relative luminescence units RLU of each well divided by the RLU of cells in DMSO controls. IC50 values are determined from viability measurements by non-linear regression using a four-parameter model.

[3] = system: MKN1 cells (gastric cancer, wt amplified); assay: MKN1 CTG proliferation assay (120 h), assay 1; type: cell-based; conditions: Homo sapiens, MKN-1, CellTiter-Glo, 400 cells per well
Method: (§1) MKN1 cells (JCRB0252) are dispensed into white 384-well plates, flat and white bottom (Corning Costar, PNr.: 3570) at a density of 400 cells per well in 50 μL RPMI 1640 (PAN-Biotech, PNr.: P04-18047)+10% FCS (HyClone, PNr.: SH30084.03) (assay 1) or into black 384-well plates, flat and clear bottom (Greiner, PNr. 781091) at a density of 200 cells per well in 60 μl RPMI-1640 (Gibco #A10491)+10% FCS (HyClone, PNr.: SH30084.03)+ PenStrep (Gibco, PNr. 15140-122) (assay 2). […] Compounds (10 mM stock in DMSO) are added at logarithmic dose series using the HP Digital Dispenser D300 (Tecan) (assay 1+2) or the ECHO acoustic liquid handler system (Beckman Coulter) (assay 3), including DMSO controls and normalizing for added DMSO. Plates are incubated for 120 h, and cell viability is measured using CellTiter-Glo luminescent cell viability reagent (Promega product code G7570). Viability (stated as percent of control) is defined as relative luminescence units RLU of each well divided by the RLU of cells in DMSO controls. IC50 values are determined from viability measurements by non-linear regression using a four-parameter model.

[4] = system: MKN1 cells (gastric cancer, wt amplified); assay: MKN1 CTG proliferation assay (120 h), assay 2; type: cell-based; conditions: Homo sapiens, MKN-1, CellTiter-Glo, 200 cells per well
Method: as §1

T1 sequence (P01116 1-169 isoform P01116-2 G13D/C118S): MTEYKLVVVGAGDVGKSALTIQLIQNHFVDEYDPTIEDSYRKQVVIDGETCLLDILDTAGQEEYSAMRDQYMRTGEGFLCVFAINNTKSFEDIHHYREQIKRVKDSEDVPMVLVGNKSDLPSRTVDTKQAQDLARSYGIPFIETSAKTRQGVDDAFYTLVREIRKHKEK

Row | SMILES | IC50 (KRAS (G13D)::SOS1) | MBI 3A4 (CYP3A4) | IC50 [1] | IC50 [2] | IC50 [3] | IC50 [4]
1 | C[C@H]1CNCCCN1c1nccc(-c2onc3c2CCC[C@@]32CCCc3sc(N)c(C#N)c32)n1 [If-1] | 932 nM | 60% | 936 nM |  |  | 
2 | C[C@H]1CNCCN1c1nccc(-c2noc3c2CCC[C@@]32CCCc3sc(N)c(C#N)c32)n1 [IIf-1] |  |  | 228 nM | 831 nM | 290 nM | 2350 nM
3 | C[C@H](Oc1nccc(-c2onc3c2CCC[C@@]32CCCc3sc(N)c(C#N)c32)n1)[C@@H]1C[C@@H](F)CN1C [Ie-2] |  |  | 526 nM |  |  | 3460 nM
4 | C[C@H]1[C@@H]2CCCN2CCCN1c1nccc(-c2onc3c2CCC[C@@]32CCCc3sc(N)c(C#N)c32)n1 [Id-1] | 89 nM |  | 69 nM |  |  | 
5 | C[C@H](Oc1ccnc(-c2noc3c2CCC[C@@]32CCCc3sc(N)c(C#N)c32)n1)[C@@H]1CCCN1C [IIb-3] |  | 69% | 171 nM |  |  | 
6 | C[C@H]1CNCCCN1c1nccc(-c2noc3c2CCC[C@@]32CCCc3sc(N)c(C#N)c32)n1 (single isomer, unassigned) [IIb-5] |  | 65% |  |  |  | 
